The values that follow come from US9290511B2, “Thieno-pyrimidines, useful as potassium channel inhibitors” (XENTION LIMITED, priority 2011, dated 2016).

Each structure is given as a SMILES string.

The test concerns the target T1, Kir3.1/3.4 (Rattus norvegicus, UniProt P48548+P63251).
T1 construct: expressed in transfected cells
T1 sequence (P63251 1-501): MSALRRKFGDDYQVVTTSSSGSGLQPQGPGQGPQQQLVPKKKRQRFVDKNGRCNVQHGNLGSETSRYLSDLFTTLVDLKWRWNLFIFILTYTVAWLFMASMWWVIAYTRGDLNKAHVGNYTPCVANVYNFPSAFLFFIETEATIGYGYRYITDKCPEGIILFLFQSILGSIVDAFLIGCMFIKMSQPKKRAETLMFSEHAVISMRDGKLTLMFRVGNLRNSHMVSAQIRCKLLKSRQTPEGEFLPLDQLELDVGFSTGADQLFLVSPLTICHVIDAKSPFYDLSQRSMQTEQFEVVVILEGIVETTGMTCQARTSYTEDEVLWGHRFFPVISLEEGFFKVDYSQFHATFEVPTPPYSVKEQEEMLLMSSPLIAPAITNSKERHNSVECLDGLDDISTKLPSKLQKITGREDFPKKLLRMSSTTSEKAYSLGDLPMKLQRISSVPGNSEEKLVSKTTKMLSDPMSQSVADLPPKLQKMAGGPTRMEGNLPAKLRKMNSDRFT
T1 sequence (P48548 1-419): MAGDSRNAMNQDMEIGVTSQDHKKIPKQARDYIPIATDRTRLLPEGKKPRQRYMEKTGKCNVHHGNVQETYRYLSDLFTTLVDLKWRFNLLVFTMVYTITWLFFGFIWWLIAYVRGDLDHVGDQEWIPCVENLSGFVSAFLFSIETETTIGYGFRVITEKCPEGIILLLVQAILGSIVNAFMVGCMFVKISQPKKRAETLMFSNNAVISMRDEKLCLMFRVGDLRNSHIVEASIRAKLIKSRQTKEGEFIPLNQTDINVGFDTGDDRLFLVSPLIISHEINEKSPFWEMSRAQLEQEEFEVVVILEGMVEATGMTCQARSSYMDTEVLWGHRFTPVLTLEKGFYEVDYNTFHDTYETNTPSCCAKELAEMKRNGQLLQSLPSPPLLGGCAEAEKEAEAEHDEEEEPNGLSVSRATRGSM
Description: Kir3.1/3.4 Electrophysiology Method (manual whole-cell patch clamp). The settings on record: Electrophysiology Method (TABLE 1). In kind it is cell-based. The essentials: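 Percent inhibition is relative to the pre-drug current, both leak-subtracted using a potassium-free bather, taken as the mean current at −140 mV. The protocol was a step to +60 mV, a ramp to −140 mV, then a return to −60 mV holding, every 10 s. Cells were rat Kir3.1/3.4-transfected HEK293 recorded by whole-cell patch clamp.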
Background: The patch-clamp technique gives a direct electrical read-out from membranes.

Usually IC50 stands for the point on the concentration scale where inhibition reaches its midpoint. Higher therefore signals lower potency. Turning to `COCCNc1nc(N2CCC(CN(C)C3CCN(C)C3)CC2)c2c(-c3ccccc3)csc2n1` (centres unmarked) [Example 118], the IC50 is below 500 nM. In the case of `NC(=O)C1CN(c2nc(N3CCC(COCCN4CCCC4)CC3)nc3scc(-c4ccccc4)c23)CCO1` (centres unmarked) [Example 305] it was below 500 nM. In the case of `CC(C)NC(=O)c1sc2ncnc(N3CCC(COCCN4CCCC4)CC3)c2c1-c1cccc(F)c1` [Example 137] it was below 500 nM; in that of `c1ccc(-c2csc3ncnc(N4CCC(COCCN5CCCC5)CC4)c23)nc1` [Example 320], 500 to 3000 nM. As for `CN1CCN(c2nc(N3CCC(CN(C)C4CCN(C)C4)CC3)c3c(-c4ccccc4)csc3n2)CC1` (centres unmarked) [Example 111], the half-maximal inhibitory concentration (IC50) is below 500 nM. In the case of `COCC1CCN(c2nc(N3CCC(CO)CC3)nc3scc(-c4ccccc4)c23)CC1` [Example 191] it was below 500 nM; in that of `COCC1CC2CCC(C1)N2c1nc(OC2CC3CC2CN3)nc2scc(-c3ccccc3)c12` (centres unmarked) [Example 352], below 500 nM; in that of `c1ccc(-c2coc3ncnc(N4CCC(COCCN5CCCC5)CC4)c23)cc1` [Example 308, 5-phenyl-4-[4-(2-pyrrolidin-1-ylethoxymethyl)-1-piperidyl]furo[2,3-d]pyrimidine], below 500 nM. In the case of `CN(C)C(=O)c1ccccc1-c1csc2ncnc(N3C4CCC3CC(COCCN3CCCC3)C4)c12` (centres unmarked) [Example 364] it was below 500 nM; in that of `CC(C)c1csc2nc(N3CCC(C(N)=O)C3)nc(N3CCC(CN(C)C4CCN(C)C4)CC3)c12` (centres unmarked) [Example 245], below 500 nM.

With `COc1ncccc1-c1csc2ncnc(N3C4CCC3CC(NC3CCC3)C4)c12` (centres unmarked) [Example 345], the IC50 is below 500 nM.

Take `c1ccc(-c2csc3ncnc(N4CCC(CN5CCOC(c6ccccc6)C5)CC4)c23)cc1` (centres unmarked) [Example 56, 2-phenyl-4-[[1-(5-phenylthieno[2,3-d]pyrimidin-4-yl)-4-piperidyl]methyl]morpholine]: the half-maximal inhibitory concentration (IC50) was below 500 nM. In the case of `COCCNc1nc(N2CCC(CN3CCCC(N(C)C)C3)CC2)c2c(-c3ccccc3)csc2n1` (centres unmarked) [Example 124] it was below 500 nM. In the case of `O=C1CCCN1c1sc2nc(N3CCC(COCCN4CCCC4)CC3)ncc2c1-c1ccccc1` [Example 156] it was below 500 nM. In the case of `CC(C)NCC1CCN(c2ncnc3scc(-c4ccccc4)c23)CC1` [Example 187] it was below 500 nM; in that of `NC(=O)C1CCN(c2nc(N3CCC(COCCN4CCOCC4)CC3)c3c(-c4ccccc4)csc3n2)C1` (centres unmarked) [Example 258], below 500 nM; in that of `Cc1sc2ncnc(N3CCC(CNCCC4CCCCN4C)CC3)c2c1C` (centres unmarked) [Example 233], below 500 nM.

In turn, `NC(=O)[C@@H]1CCCN1CCOCC1C2CN(c3ncnc4scc(-c5ccc(F)cc5)c34)CC12` (some centres unmarked) [Example 277] came in with a half-inhibitory concentration (IC50) below 500 nM.

`CC(C)c1cc2c(N3CCC(COCCC4CCCCN4C)CC3)ncnc2s1` (centres unmarked) [Example 25, 6-isopropyl-4-[4-[2-(1-methyl-2-piperidyl)ethoxymethyl]-1-piperidyl]thieno[2,3-d]pyrimidine] returned an IC50 below 500 nM. In the case of `CN1CCN(c2nc(N3CCC(CN4CCCC(N(C)C)C4)CC3)c3c(-c4ccccc4)csc3n2)CC1` (centres unmarked) [Example 115] it was below 500 nM; in that of `CNC(=O)c1sc2ncnc(N3CCC(COCCN4CCCC4)CC3)c2c1C(C)C` [Example 134], 500 to 3000 nM. In the case of `CN1CCC(N(C)CC2CCN(c3ncnc4sc(C(=O)N(C)C)c(-c5ccccc5)c34)CC2)C1` (centres unmarked) [Example 136] it was 500 to 3000 nM. In the case of `COC1CC2CCC(C1)N2c1nc(OC2CC3CC2CN3)nc2scc(-c3ccccc3)c12` (centres unmarked) [Example 348] it was below 500 nM; in that of `F[C@H]1CCN(CCOC2CC3CC2CN3c2ncnc3scc(-c4ccccc4)c23)C1` (some centres unmarked) [Example 291], below 500 nM; in that of `NC(=O)[C@H]1CCCN1CCOC1CC2CC1CN2c1ncnc2scc(-c3ccccc3)c12` (some centres unmarked) [Example 293], below 500 nM. `FC(F)CNCC1CCN(c2ncnc3scc(-c4ccccc4)c23)CC1` [Example 52, 2,2-difluoro-N-[[1-(5-phenylthieno[2,3-d]pyrimidin-4-yl)-4-piperidyl]methyl]ethanamine]: the IC50 lay in the range of 500 to 3000 nM.

On to `CC(=O)Nc1sc2nc(N3CCC(COCCN4CCCC4)CC3)ncc2c1-c1ccccc1` [Example 155, N-[5-phenyl-2-[4-(2-pyrrolidin-1-ylethoxymethyl)-1-piperidyl]thieno[2,3-d]pyrimidin-6-yl]acetamide], for which the IC50 was 500 to 3000 nM. In the case of `CN(C)[C@@H]1CCN(CC2CCN(c3nc(N4CCC(C(N)=O)C4)nc4scc(-c5ccccc5)c34)CC2)C1` (some centres unmarked) [Example 236] it was below 500 nM. In the case of `c1ccc(-c2csc3ncnc(N4C5CCC4CC(N4CCC4)C5)c23)cc1` (centres unmarked) [Example 326] it was below 500 nM.

Consider `Cc1csc2ncnc(N3CC(CNCCC4CCCN4C)CC3c3ccccc3)c12` (centres unmarked) [Example 210], for which the IC50 is below 500 nM. In the case of `NC(=O)[C@@H]1CCCN1CC1CCN(c2ncnc3scc(-c4ccccc4)c23)CC1` [Example 106] it was below 500 nM; in that of `c1ccc(-c2csc3ncnc(N4CC5C(COCCN6CCOCC6)C5C4)c23)cc1` (centres unmarked) [Example 38, 4-[2-[[3-(5-phenylthieno[2,3-d]pyrimidin-4-yl)-3-azabicyclo[3.1.0]hexan-6-yl]methoxy]ethyl]morpholine], 500 to 3000 nM. In the case of `c1ccc(-c2csc3ncnc(N4CCC(COC5CCC5)CC4)c23)cc1` [Example 9, 4-[4-(cyclobutoxymethyl)-1-piperidyl]-5-phenyl-thieno[2,3-d]pyrimidine] it was below 500 nM; in that of `O=[N+]([O-])c1ccc(-c2csc3ncnc(N4CCC(COCCN5CCCC5)CC4)c23)cc1` [Example 46, 5-(4-nitrophenyl)-4-[4-(2-pyrrolidin-1-ylethoxymethyl)-1-piperidyl]thieno[2,3-d]pyrimidine], below 500 nM; in that of `CN(CCC1CCCN1)CC1CCN(c2ncnc3scc(-c4ccccc4)c23)CC1` (centres unmarked) [Example 86, N-methyl-N-[[1-(5-phenylthieno[2,3-d]pyrimidin-4-yl)-4-piperidyl]methyl]-2-pyrrolidin-2-yl-ethanamine], below 500 nM.

Regarding `COc1ccccc1-c1csc2ncnc(N3C4CCC3CC(COCCN3CCCC3)C4)c12` (centres unmarked) [Example 362], the IC50 was below 500 nM. In the case of `O=C(NCCN1CCCC1)C1CCCN(c2ncnc3scc(-c4ccccc4)c23)C1` (centres unmarked) [Example 268] it was below 500 nM. For the compound `O[C@H]1CN(CC2CCN(c3ncnc4scc(-c5ccccc5)c34)CC2)C[C@@H]1N1CCCC1` [Example 67, (3S,4S)-1-[[1-(5-phenylthieno[2,3-d]pyrimidin-4-yl)-4-piperidyl]methyl]-4-pyrrolidin-1-yl-pyrrolidin-3-ol], the IC50 was below 500 nM. Compound `CN1CCC(N(C)CC2CCN(c3nc(N4CCCC(C(N)=O)C4)nc4scc(-c5ccccc5)c34)CC2)C1` (centres unmarked) [Example 238] registered a half-inhibitory concentration (IC50) below 500 nM. In the case of `c1ccc(-c2csc3ncnc(N4C5CCC4CC(OCCN4CCCC4)C5)c23)cc1` (centres unmarked) [Example 289] it was below 500 nM; in that of `CC(C)c1csc2ncnc(N3CC4CC3CC4OCCN3CC[C@@H](F)C3)c12` (some centres unmarked) [Example 295], below 500 nM. In the case of `CN1CCC(N(C)C(=O)C2CCCN(c3ncnc4scc(-c5ccccc5)c34)C2)C1` (centres unmarked) [Example 282] it was 500 to 3000 nM; in that of `CN1CCC[C@H]1CCNCC1CCN(c2ncnc3scc(-c4ccccc4)c23)CC1` [Example 100], below 500 nM; in that of `c1ccc(-c2csc3ncnc(N4CC[C@H](COCCN5CCCC5)C4)c23)cc1` [Example 263], below 500 nM. In the case of `CNC(=O)c1sc2ncnc(N3CCC(COCCN4CCCC4)CC3)c2c1-c1ccccc1` [Example 141] it was below 500 nM. In turn, `CC1CC(CNCCC2CCCN2C)CN1c1ncnc2scc(-c3ccccc3)c12` (centres unmarked) [Example 209] showed an IC50 below 500 nM. In the case of `COCCNCC1CCN(c2nc(N3CCC(COC)CC3)c3c(-c4ccccc4)csc3n2)CC1` [Example 192] it was below 500 nM.

The compound `c1ccc(-c2csc3nc(OC4CC5CC4CN5)nc(N4C5CCC4COC5)c23)cc1` (centres unmarked) [Example 349, 8-[2-(2-azabicyclo[2.2.1]heptan-5-yloxy)-5-phenyl-thieno[2,3-d]pyrimidin-4-yl]-3-oxa-8-azabicyclo[3.2.1]octane] yielded a concentration for half-maximal inhibition (IC50) below 500 nM.

On to `c1ccc(-c2csc3ncnc(N4CCC(OCCN5CCCC5)CC4)c23)cc1` [Example 271], for which the 50% inhibitory concentration (IC50) was below 500 nM. In the case of `COC1CCN(CC2CCN(c3ncnc4scc(-c5ccccc5)c34)CC2)C1` (centres unmarked) [Example 68, 4-[4-[(3-methoxypyrrolidin-1-yl)methyl]-1-piperidyl]-5-phenyl-thieno[2,3-d]pyrimidine] it was below 500 nM.
